In ChEMBL document CHEMBL4196115 (ACS Med Chem Lett, 2018):
Changes are numbered by the printed parent chain. The source made the active and inactive calls. The calls are words filed in the database; no cut-off is given here.

Tests used:
Mus musculus [1] = assay: Antialzheimer activity in mouse assessed as plasma concentration required for reversal of scopolamine-induced emotional memory deficits by measuring increase in freezing at 3 mg/kg, ip measured after 24 hrs by contextual fear conditioning assay; type: functional, organism-based
[2] = target: T1, Muscarinic acetylcholine receptor M1 (Homo sapiens) (UniProt P11229); assay: Positive allosteric modulation of human muscarinic acetylcholine receptor M1 expressed in CHO cells assessed as increase in acetylcholine-induced calcium mobilization pretreated for 4 mins followed by acetylcholine addition and measured after 4 mins by Fluo-4-AM dye based FLIPR assay; type: functional, cell-based
T1 sequence (whole entry): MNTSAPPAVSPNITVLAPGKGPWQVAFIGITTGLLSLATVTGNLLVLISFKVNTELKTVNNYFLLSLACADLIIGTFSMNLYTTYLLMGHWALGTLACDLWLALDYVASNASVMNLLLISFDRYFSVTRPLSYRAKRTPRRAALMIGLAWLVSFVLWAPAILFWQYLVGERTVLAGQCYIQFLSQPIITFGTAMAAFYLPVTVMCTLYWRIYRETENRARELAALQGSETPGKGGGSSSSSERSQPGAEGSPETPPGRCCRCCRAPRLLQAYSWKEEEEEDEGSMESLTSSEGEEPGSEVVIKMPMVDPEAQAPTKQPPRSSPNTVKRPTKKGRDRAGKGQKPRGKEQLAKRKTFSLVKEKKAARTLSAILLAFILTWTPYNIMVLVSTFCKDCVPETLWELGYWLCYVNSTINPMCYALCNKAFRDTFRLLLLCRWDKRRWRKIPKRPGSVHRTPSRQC

[3] = target: T2, Muscarinic acetylcholine receptor M1 (Rattus norvegicus) (UniProt P08482); conditions: CHO
T2 sequence (whole entry): T1 sequence (whole entry) with A5V, T254S, P309S, R320K, A337G, I413V
Description: Positive allosteric modulation of rat muscarinic acetylcholine receptor M1 expressed in CHO cells assessed as increase in acetylcholine-induced calcium mobilization pretreated for 4 mins followed by acetylcholine addition and measured after 4 mins by Fluo-4-AM dye based FLIPR assay

[4] = target: T3, Muscarinic acetylcholine receptor M5 (Homo sapiens) (UniProt P08912); assay: Positive allosteric modulation of human muscarinic acetylcholine receptor M5 expressed in CHO cells; type: functional, cell-based
T3 sequence (whole entry): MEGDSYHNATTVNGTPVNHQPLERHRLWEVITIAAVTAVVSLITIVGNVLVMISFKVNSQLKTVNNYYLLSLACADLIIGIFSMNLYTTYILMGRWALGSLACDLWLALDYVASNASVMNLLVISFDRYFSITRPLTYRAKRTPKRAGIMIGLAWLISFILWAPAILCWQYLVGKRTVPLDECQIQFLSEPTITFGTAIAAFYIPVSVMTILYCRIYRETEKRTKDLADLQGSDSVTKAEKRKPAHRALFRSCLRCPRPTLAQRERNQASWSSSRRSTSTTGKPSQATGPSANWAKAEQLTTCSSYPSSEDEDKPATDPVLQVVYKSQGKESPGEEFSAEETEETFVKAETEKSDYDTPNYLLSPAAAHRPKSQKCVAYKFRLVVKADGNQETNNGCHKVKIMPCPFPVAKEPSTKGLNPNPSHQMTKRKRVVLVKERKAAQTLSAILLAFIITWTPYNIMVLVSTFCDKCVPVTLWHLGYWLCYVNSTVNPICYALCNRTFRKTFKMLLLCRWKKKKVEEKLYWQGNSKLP

[5] = target: T3, Muscarinic acetylcholine receptor M5 (Homo sapiens); assay: Agonist activity at human muscarinic acetylcholine receptor M5 expressed in CHO cells; type: functional, cell-based
[6] = target: T4, Muscarinic acetylcholine receptor M2 (Homo sapiens) (UniProt P08172); assay: Agonist activity at human muscarinic acetylcholine receptor M2 expressed in CHO cells; type: functional, cell-based
T4 sequence (whole entry): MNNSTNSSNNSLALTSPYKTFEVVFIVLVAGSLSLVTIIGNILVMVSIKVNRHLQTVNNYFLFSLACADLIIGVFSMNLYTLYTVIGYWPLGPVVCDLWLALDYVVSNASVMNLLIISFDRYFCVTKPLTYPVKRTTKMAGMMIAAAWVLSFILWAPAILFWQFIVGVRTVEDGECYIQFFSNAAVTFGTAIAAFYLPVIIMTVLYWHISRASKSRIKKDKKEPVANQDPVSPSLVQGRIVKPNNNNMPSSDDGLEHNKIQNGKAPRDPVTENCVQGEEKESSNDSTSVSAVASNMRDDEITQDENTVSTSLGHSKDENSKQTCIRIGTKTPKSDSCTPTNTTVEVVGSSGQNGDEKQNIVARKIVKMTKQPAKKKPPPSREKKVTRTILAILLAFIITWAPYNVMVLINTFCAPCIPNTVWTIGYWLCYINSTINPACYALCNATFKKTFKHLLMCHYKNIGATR

[7] = target: T5, Muscarinic acetylcholine receptor M4 (Homo sapiens) (UniProt P08173); assay: Agonist activity at human muscarinic acetylcholine receptor M4 expressed in CHO cells; type: functional, cell-based
T5 sequence (whole entry): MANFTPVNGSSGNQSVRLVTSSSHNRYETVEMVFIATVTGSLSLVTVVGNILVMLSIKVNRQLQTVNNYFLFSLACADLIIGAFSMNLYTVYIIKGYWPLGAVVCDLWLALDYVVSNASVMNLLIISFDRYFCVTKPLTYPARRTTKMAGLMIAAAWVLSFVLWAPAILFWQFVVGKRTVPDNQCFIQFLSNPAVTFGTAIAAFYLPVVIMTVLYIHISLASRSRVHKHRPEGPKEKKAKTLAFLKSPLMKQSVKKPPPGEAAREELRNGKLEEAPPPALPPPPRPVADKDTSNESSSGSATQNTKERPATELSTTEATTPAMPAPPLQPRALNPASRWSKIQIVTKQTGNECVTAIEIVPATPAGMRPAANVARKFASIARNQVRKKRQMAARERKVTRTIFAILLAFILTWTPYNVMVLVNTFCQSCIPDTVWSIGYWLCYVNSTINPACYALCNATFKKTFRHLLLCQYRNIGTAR

Mus musculus [8] = assay: Antialzheimer activity in mouse assessed as reversal of scopolamine-induced emotional memory deficits by measuring increase in freezing at 3 mg/kg, ip measured after 24 hrs by contextual fear conditioning assay; type: functional, organism-based
[9] = target: T4, Muscarinic acetylcholine receptor M2 (Homo sapiens); assay: Positive allosteric modulation of human muscarinic acetylcholine receptor M2 expressed in CHO cells; type: functional, cell-based
Mus musculus [10] = assay: Antialzheimer activity in mouse assessed as unbound brain concentration required for reversal of scopolamine-induced emotional memory deficits by measuring increase in freezing at 3 mg/kg, ip measured after 24 hrs by contextual fear conditioning assay; type: functional, organism-based
[11] = target: Muscarinic acetylcholine receptor M3 (Homo sapiens) (UniProt P20309); assay: Positive allosteric modulation of human muscarinic acetylcholine receptor M3 expressed in CHO cells; type: functional, cell-based
Sequence of Muscarinic acetylcholine receptor M3 (Homo sapiens) (P20309 whole entry, looked up): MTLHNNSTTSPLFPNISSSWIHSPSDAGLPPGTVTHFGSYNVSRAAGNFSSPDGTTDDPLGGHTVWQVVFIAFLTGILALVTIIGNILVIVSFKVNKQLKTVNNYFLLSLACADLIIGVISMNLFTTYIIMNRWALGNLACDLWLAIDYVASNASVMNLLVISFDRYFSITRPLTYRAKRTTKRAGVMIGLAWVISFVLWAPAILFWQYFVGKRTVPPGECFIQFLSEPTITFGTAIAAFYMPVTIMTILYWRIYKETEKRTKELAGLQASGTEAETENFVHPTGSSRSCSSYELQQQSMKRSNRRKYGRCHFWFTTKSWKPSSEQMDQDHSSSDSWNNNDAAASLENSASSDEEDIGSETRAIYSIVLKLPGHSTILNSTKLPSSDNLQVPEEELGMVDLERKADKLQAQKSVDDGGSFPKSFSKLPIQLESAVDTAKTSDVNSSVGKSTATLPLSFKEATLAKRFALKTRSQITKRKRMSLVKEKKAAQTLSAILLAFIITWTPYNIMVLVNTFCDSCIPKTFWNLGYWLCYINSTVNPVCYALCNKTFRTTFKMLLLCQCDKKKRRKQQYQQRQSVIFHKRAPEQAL

Work on `Cc1ccc(Cc2cc3c(=O)n([C@H]4CCCC[C@@H]4O)cnc3c3ccccc23)cn1` yielded a Cp (Mus musculus [1]) of 2.4 µM, an IP [2] of 19 nM and an IP [3] of 14 nM. For the same compound, the Activity [4] was “inactive”, the Activity [5] was “inactive” and the Activity [6] was “inactive”. The Activity [7] was “inactive”, the Activity (Mus musculus [8]) was “Active” and the Activity [9] was “inactive”. For the same compound, the Drug uptake(free) (Mus musculus [10]) was 24 nM and the Activity [11] was “inactive”.
